Experimental data: ChEMBL document CHEMBL1201862, “PubChem BioAssay data set” (2004)
Calls of active or inactive are those of the source.

What was measured:
[1] = target: Cytochrome P450 3A4 (Homo sapiens, UniProt P08684);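 also: CYP3A4 tested as one member of a cytochrome P450 panel screen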
[2] = target: T1, Heat shock factor protein 1 (Mus musculus, UniProt P38532); assay: HSF1 potentiators in luciferase reporter cells, confirmation, cell-based, NIH3T3, luminescence, dose retest (AID 435004); type: functional;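 also: stress induced by proteasome inhibitor MG132 added 30 min after compound; luciferase reporter driven by HSF1 response element in NIH3T3 cells; actives raise luminescence as potentiators of the MG132 stress response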
T1 sequence (P38532 whole entry): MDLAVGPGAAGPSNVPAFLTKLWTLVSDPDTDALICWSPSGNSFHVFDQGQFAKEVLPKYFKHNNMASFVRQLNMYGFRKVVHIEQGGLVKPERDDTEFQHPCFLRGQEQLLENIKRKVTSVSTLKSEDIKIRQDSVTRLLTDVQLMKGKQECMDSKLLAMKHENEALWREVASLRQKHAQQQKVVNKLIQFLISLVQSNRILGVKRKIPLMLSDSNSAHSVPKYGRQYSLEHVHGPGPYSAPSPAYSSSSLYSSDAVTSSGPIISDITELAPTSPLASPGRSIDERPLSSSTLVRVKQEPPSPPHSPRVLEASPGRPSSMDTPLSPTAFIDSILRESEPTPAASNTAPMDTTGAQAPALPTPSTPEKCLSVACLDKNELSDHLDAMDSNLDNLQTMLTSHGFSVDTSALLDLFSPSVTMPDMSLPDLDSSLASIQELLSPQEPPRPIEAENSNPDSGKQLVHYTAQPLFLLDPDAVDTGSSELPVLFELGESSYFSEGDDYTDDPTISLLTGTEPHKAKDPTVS

[3] = target: Cytochrome P450 2C19 (Homo sapiens, UniProt P33261); assay: Cytochrome panel assay with activity outcomes. Panel member name: p450-cyp2c19 Compounds with AC50 equal or less than 10 uM are considered active; type: functional
[4] = inhibitors of firefly luciferase expression or activity, dose response, H4 neuroglioma cells, luminescence (AID 1990); type: functional, cell-based
[5] = Luminescence Cell-Based Dose Response HTS to Identify Inhibitors of 5'UTR Stem-Loop Driven Prion Protein mRNA Translation in H4 Neuroglioblastoma Cells. [Related pubchem assays: 1827 (Project Summary), 1813 (Primary HTS)]; type: functional
[6] = inhibitors of SNCA 5'UTR-driven reporter translation, confirmation, H4 neuroglioma cells, luminescence (AID 1988); type: functional, cell-based
[7] = target: T1, Heat shock factor protein 1; assay: inhibition of MG132-induced HSE-luciferase signal, confirmation, cell-based, NIH3T3, luminescence, dose retest (AID 2382); type: functional;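 also: NIH3T3 fibroblasts with HSF1-driven luciferase reporter stressed by proteasome inhibitor MG132; luminescence from HSF1-driven luciferase expression after 8 hours of MG132 stress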
[8] = inhibitors of intracellular T. cruzi replication, confirmation, NIH3T3 host cells, beta-gal luminescence (AID 2044); type: functional, cell-based;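 also: intracellular parasites grown in NIH/3T3 mouse fibroblasts as host cells; luminescent beta-galactosidase reporter signal from transgenic T. cruzi replicating inside host cells; inhibitors lower the luminescence signal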
[9] = cytotoxicity toward NIH3T3 fibroblasts, dose response, counter-screen, cell-based, ATP luminescence, mouse fibroblasts (AID 2010); type: functional;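 also: cells exposed to compound for about 90 hours before reading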
[10] = tested on: Streptococcus sp. 'group A'; assay: growth inhibition of control SK(-) GAS strain, dose response, counter-screen for streptokinase expression inhibitor project, luminescence, kanamycin, BacTiterGlo, confirmation (AID 1900); type: functional, organism-based
[11] = tested on: Streptococcus; assay: Group A Streptococcus viability loss, dose response, counter-screen for streptokinase expression inhibitor project, luminescence, BacTiterGlo (AID 1915); type: functional, organism-based;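 also: potency for reduction of bacterial viability or growth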

Chain of Cytochrome P450 2C19 (P33261 whole entry): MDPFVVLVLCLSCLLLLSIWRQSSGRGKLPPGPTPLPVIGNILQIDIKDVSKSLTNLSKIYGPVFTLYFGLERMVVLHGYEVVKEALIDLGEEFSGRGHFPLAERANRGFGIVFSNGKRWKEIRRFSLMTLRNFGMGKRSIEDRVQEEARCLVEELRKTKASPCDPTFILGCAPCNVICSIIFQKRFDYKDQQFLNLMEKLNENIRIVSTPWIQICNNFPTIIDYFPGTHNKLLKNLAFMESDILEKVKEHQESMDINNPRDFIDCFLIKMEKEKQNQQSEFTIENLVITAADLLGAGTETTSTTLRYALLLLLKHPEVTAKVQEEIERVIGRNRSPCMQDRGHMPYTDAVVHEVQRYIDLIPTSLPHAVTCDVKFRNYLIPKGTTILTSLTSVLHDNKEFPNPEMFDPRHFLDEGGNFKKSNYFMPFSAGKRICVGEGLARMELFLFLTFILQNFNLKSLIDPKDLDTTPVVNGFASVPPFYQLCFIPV
Chain of Cytochrome P450 3A4 (P08684 whole entry): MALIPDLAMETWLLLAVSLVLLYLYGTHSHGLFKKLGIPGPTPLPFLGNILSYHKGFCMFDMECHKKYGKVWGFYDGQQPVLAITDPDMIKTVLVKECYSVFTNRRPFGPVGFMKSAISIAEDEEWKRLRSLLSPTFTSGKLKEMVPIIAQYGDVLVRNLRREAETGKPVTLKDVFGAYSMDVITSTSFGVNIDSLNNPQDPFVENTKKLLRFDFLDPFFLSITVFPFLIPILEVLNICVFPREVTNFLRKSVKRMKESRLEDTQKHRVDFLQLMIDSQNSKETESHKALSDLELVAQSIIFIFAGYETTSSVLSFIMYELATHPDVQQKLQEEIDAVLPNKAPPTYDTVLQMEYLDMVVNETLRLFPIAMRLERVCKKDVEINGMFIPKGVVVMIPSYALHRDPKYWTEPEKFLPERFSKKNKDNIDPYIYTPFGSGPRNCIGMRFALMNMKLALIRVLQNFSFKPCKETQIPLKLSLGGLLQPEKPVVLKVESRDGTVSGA

## Nc1cc(Cl)ccc1Oc1ccccc1
[1]
  AC50: 22.4 µM (inconclusive)

## Cc1cc(C)n(Cc2ccc(Cl)cc2Cl)c(=O)c1S(=O)(=O)c1ccccc1
[2]
  EC50: > 260 µM (inactive)

## CCOC(=O)CCCNC(=O)CCCNC(=O)C(c1ccccc1)c1ccccc1
[3]; read-out: AC50
  AC50: 14.1 µM (inconclusive)
[1]
  AC50: 8.91 µM (inconclusive)

## Cc1ccc(-c2nnc(N3CCN(C(=O)c4cccs4)CC3)c3ccccc23)cc1
[4]
  EC50: > 120 µM (not active)
[5]
  EC50: > 120 µM (not active)
[6]
  EC50: 22 µM (active)

## CCOc1cc(OCC)cc(C(=O)O)c1
[7]
  EC50: > 195 µM (not active)

## CCc1cc2c(nc1CC)CCN(CC/C(C)=N/OC[C@@H](C)[C@H](OCc1ccccc1)C(C)C)C2
[1]
  AC50: 3.98 µM (inconclusive)

## Cn1cccc1C(=O)N1CCC2(CCCN(C(=O)Nc3ccccc3)C2)CC1
[1]
  AC50: 31.6 µM (inconclusive)

## CCn1c(SCC(=O)Nc2nc(C)c(C)s2)nnc1-c1cccnc1
[4]
  EC50: > 120 µM (not active)
[5]
  EC50: > 120 µM (not active)
[6]
  EC50: > 120 µM (not active)

## COc1ccc(CN(CC2CCC(C(=O)O)CC2)C(=S)Nc2ccc(C)c(Cl)c2)cc1 (stereo not drawn)
[8]
  EC50: > 60 µM (not active)
[9]
  EC50: > 60 µM (not active)

## COC(=O)C1=CN(Cc2ccc(OC)c(OC)c2)C=C(C(=O)OC)C1c1cccc(F)c1
[4]
  EC50: 15.1 µM (active)
[5]
  EC50: > 120 µM (not active)
[6]
  EC50: 65.7 µM (active)
[8]
  EC50: 0.156 µM (active)
[9]
  EC50: > 60 µM (not active)

## CCOC(=O)c1ccc(-c2c(-c3cc(OC)c(OC)c(OC)c3)noc2C)cc1F
[4]
  EC50: 9.94 µM (inconclusive)
[5]
  EC50: 11.4 µM (active)
[6]
  EC50: 1.43 µM (active)

## COc1ccc(C)cc1S(=O)(=O)Nc1cc2c3c(c1)CCC(=O)N3CCC2
[7]
  EC50: > 195 µM (not active)

## COc1ccc(CN2CC(=O)N(c3ccc(C)c(C)c3)C2=S)cc1OC
[4]
  EC50: 21.3 µM (active)
[5]
  EC50: > 120 µM (not active)
[6]
  EC50: 20.4 µM (active)

## Cc1cc(CN2CCN(CCC#N)CC2)c(O)c(C2(C)CCCCC2)c1
[8]
  EC50: 1.1 µM (active)
[9]
  EC50: > 60 µM (not active)

## CCOC(=O)Cc1cnc(NC(=O)c2ccccc2)s1
[7]
  EC50: > 195 µM (not active)

## CCN(C(=O)c1cccc(S(=O)(=O)N2CCCCC2)c1)C1CCS(=O)(=O)C1 (stereo not drawn)
[2]
  EC50: > 260 µM (inactive)

## CC(C)(C)OC(=O)N1CCN(C(=O)c2[nH]cnc2C(=O)NCC(=O)OCc2ccccc2)CC1
[7]
  EC50: > 195 µM (not active)

## O=C(c1ccc(SCc2cccc(Br)c2)c([N+](=O)[O-])c1)N1CCN(c2ccccn2)CC1
[8]
  EC50: 2.08 µM (active)
[9]
  EC50: > 60 µM (not active)

## O=C(Nc1c2c(nn1-c1ccc(F)cc1)CS(=O)(=O)C2)C12CC3CC(CC(C3)C1)C2
[3]
  AC50: inconclusive

## O=C(Cc1ccccc1)NCCSCc1ccc(Cl)cc1
[1]
  AC50: 14.1 µM (inconclusive)

## Nc1nc(NC(=O)C(Cl)(Cl)Cl)nn1-c1ccccc1
[7]
  EC50: > 195 µM (not active)

## CC(CCCC(C)(C)O)NC(=O)c1ccc2oc(CCc3ccccc3)nc2c1 (stereo not drawn)
[7]
  EC50: > 195 µM (not active)

## O=C1[C@H]2[C@H]3[C@H](O)[C@H](O)C/C(=N/OC[C@@H](O)COCc4ccco4)[C@@H]3CC[C@@H]2C(=O)N1c1cccc(Oc2ccccc2)c1
[1]
  AC50: 7.94 µM (inconclusive)

## Cc1ccc2[nH]c(SCC(=O)Nc3cccc(S(=O)(=O)NC4=NCCCCC4)c3)nc2c1
[2]
  EC50: > 260 µM (inactive)

## O=C1CCN(Cc2ccccc2)N1
[2]
  EC50: > 260 µM (inactive)

## COc1ccc(OC)c(C2CC(=O)Nc3[nH]nc(-c4ccccc4)c32)c1 (stereo not drawn)
[4]
  EC50: > 120 µM (not active)
[5]
  EC50: > 120 µM (not active)
[6]
  EC50: > 120 µM (not active)

## COC(=O)c1ccc(COc2cccc3c2CCN(Cc2cccc(C)c2)C3=O)o1
[4]
  EC50: > 120 µM (not active)
[5]
  EC50: > 120 µM (not active)
[6]
  EC50: 107 µM (active)

## CN1CC[C@@]2(CCCN(C(=O)c3cccn3C)C2)C1
[1]
  AC50: 7.94 µM (inconclusive)

## O=C(/C=C/c1ccccc1)NC(=S)N1CCSCC1
[7]
  EC50: > 195 µM (not active)

## Cc1ccc(-c2nnn(CC(=O)N(Cc3cccs3)C(C(=O)NC3CCCC3)c3ccncc3)n2)cc1 (stereo not drawn)
[7]
  EC50: > 195 µM (not active)

## Cc1ccc(S(=O)(=O)c2c(C)cc(C)nc2Cl)c(C)c1
[8]
  EC50: 2 µM (active)
[9]
  EC50: > 60 µM (not active)

## Cc1ccc(N2C(=O)c3ccccc3NC2C(C)Cc2ccc3c(c2)OCO3)cc1 (stereo not drawn)
[8]
  EC50: 2.61 µM (active)
[9]
  EC50: > 30 µM (not active)

## Cc1ccc([N+](=O)[O-])c(OCCCN2CCC(Cc3ccccc3)CC2)c1
[7]
  EC50: > 195 µM (not active)

## C=CCOc1ccc(/C=C/C(=O)OCC(=O)NCC2CCCCC2)cc1
[7]
  EC50: > 195 µM (not active)

## COc1ccc(/C=C2\CCCC3C2=NN(C(=O)COC(=O)CNC(=O)c2ccccc2)C3c2ccc(OC)cc2)cc1 (stereo not drawn)
[7]
  EC50: > 195 µM (not active)

## COc1ccc(C(=O)N2CCC3(CCCN(CC(C)C)C3)CC2)cc1
[1]
  AC50: 25.1 µM (inconclusive)

## Cc1ccc(N(C)C(=O)CN(C)S(=O)(=O)c2ccc3c(c2)n(C)c(=O)c(=O)n3C)cc1
[7]
  EC50: > 195 µM (not active)

## CCOc1c(C)cc(S(=O)(=O)NCc2cccnc2)c(C)c1C
[7]
  EC50: > 195 µM (not active)

## Oc1nc(CN2CCN(C/C=C/c3ccccc3)CC2)nc2cc(Cl)ccc12
[8]
  EC50: 0.405 µM (active)
[9]
  EC50: > 60 µM (not active)

## Cc1cccc(C)c1NC(=O)c1cc2c(=O)c3ccccc3oc2nc1C(F)(F)F
[3]
  AC50: inconclusive
[1]
  AC50: 0.0501 µM (inconclusive)

## CCOC(=O)c1c(-c2ccc(C)cc2)cn2ccccc12
[2]
  EC50: > 260 µM (inactive)

## COC(=O)C1=C(C)N(CCc2c[nH]c3ccc(OC)cc23)C(=O)C1
[4]
  EC50: > 120 µM (not active)
[5]
  EC50: > 120 µM (not active)
[6]
  EC50: > 120 µM (not active)

## CO[C@@H]1COC(=O)CCC[C@@H](C)[C@H](OC)COC(=O)[C@H](Cc2ccccc2)NC(=O)C/C=C\[C@H]1C
[3]; read-out: AC50
  AC50: 0.00251 µM (inconclusive)

## COCCNC(=O)c1cccc(OC2CCN(Cc3ccc(Cl)c(F)c3)CC2)c1
[2]
  EC50: > 260 µM (inactive)

## S=C(Nc1ccc(Br)cc1Cl)NC1CCN(Cc2ccccc2)CC1
[8]
  EC50: 0.228 µM (active)
[9]
  EC50: > 30 µM (not active)

## N=c1sccn1CC(=O)Nc1cc(Cl)ccc1Oc1ccccc1
[2]
  EC50: > 260 µM (inactive)

## COc1cccc(-n2c(SCC(=O)Nc3sc4c(c3C(N)=O)CCC4)nc3ccccc3c2=O)c1
[8]
  EC50: 2.9 µM (active)
[9]
  EC50: > 60 µM (not active)

## CC(C)c1cccc2cc3c(nc12)-c1cccc(=O)n1C3
[3]; read-out: AC50
  AC50: 39.8 µM (inconclusive)

## CSCC[C@H](NC(=O)CC(C)(C)C)c1nc2ccccc2[nH]1
[1]
  AC50: 15.8 µM (inconclusive)

## O=C(NCCN1Cc2ccccc2C1=O)c1cccs1
[2]
  EC50: > 260 µM (inactive)

## COc1ccc(C(=O)NCc2nnc(SCC(=O)N3CCC(C)CC3)o2)cc1OC
[7]
  EC50: > 195 µM (not active)

## N#CCn1c2ccccc2c2nc3ccccc3nc21
[4]
  EC50: 23.3 µM (active)
[5]
  EC50: > 120 µM (not active)
[6]
  EC50: > 120 µM (not active)

## CC(=O)C1=C(O)C=C(c2ccco2)CC1c1ccco1 (stereo not drawn)
[3]; read-out: AC50
  AC50: 2.24 µM (inconclusive)
[1]
  AC50: 20 µM (inconclusive)

## O=C(Nc1nc(-c2ccccc2)cs1)C1CCCCN1S(=O)(=O)c1ccc(Cl)cc1 (stereo not drawn)
[8]
  EC50: 2.22 µM (active)
[9]
  EC50: > 60 µM (not active)

## CC(=O)c1[nH]c(C)c(C(C)=O)c1C
[1]
  AC50: 20 µM (inconclusive)

## CC1CCCC(C)N1CC(O)COCC1COc2ccccc2O1.Cl (stereo not drawn)
[3]
  AC50: inconclusive

## Cc1cc(-c2c(C)[nH]n(-c3ccc(Cl)cc3)c2=O)[nH]n1
[10]
  EC50: 2.51 µM (active)
[11]
  EC50: > 150 µM (not active)

## COc1cc(OC)c(OC)cc1/C=N/NC(=S)NCC1CCCO1 (stereo not drawn)
[7]
  EC50: > 195 µM (not active)

## O=[N+]([O-])c1ccccc1/C=N/n1c(S)nnc1COc1ccccc1
[3]; read-out: AC50
  AC50: 11.2 µM (inconclusive)

## COc1cccc2cc(C(=O)NCc3ccco3)/c(=N/c3ccc(C(=O)O)cc3)oc12
[7]
  EC50: > 195 µM (not active)

## C/C(=N\Nc1nnc(-c2ccccc2)c(-c2ccccc2)n1)c1cccc([N+](=O)[O-])c1
[3]; read-out: AC50
  AC50: 17.8 µM (inconclusive)
[1]
  AC50: 35.5 µM (inconclusive)

## C/C(=N\CCc1c(C)[nH]c2ccc(OCc3ccccc3)cc12)C1=C(O)CC(c2ccccc2)CC1=O (stereo not drawn)
[8]
  EC50: 2.1 µM (active)
[9]
  EC50: > 60 µM (not active)

## Oc1ccc(OCc2ccccc2)cc1 [MONOBENZONE]
[3]; read-out: AC50
  AC50: 6.31 µM (inconclusive)
